According to patent publication US8580790B2, “(Heterocycle/condensed piperidine)-(piperazinyl)-1-alkanone or (heterocycle/condensed pyrrolidine)-(piperazinyl)-1-alkanone derivatives and use thereof as p75 inhibitors” (Sanofi, priority 2009, dated 2013):

Legend:
human p75^NTR receptor = biological target: T1, human p75^NTR receptor (Homo sapiens, UniProt P08138); assay: Dimerization of the p75NTR receptor independently of its ligand (soluble p75NTR-alkaline phosphatase binding to SK-N-BE Bep 75 cells); assay type: cell-based; details: soluble p75NTR-alkaline phosphatase 10 nM, 1 h preincubation at 37° C.
T1 construct: the whole form of the human p75^NTR receptor; expressed in transfected cells; the soluble AP fusion comes from the supernatant of transiently transfected HEK293 cells
T1 sequence (P08138 29-427): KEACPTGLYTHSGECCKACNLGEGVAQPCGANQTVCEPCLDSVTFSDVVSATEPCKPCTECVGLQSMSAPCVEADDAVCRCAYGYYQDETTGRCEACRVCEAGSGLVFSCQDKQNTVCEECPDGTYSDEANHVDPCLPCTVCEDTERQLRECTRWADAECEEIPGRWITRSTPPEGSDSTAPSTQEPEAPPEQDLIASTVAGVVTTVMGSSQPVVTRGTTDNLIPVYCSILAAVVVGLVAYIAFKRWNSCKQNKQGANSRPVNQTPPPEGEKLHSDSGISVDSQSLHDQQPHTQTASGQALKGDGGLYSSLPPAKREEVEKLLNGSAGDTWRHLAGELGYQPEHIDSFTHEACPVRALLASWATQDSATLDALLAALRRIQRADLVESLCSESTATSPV
Procedure: (§1) The SK-N-BE parent strain (human neuroblastoma) and the Bep 75 clone, stably expressing the whole form of the human p75^NTR receptor (SK-N-BE Bep 75) are cultured conventionally in an RPMI culture medium containing FCS (5%), sodium pyruvate (1 mM) and glutamine (4 mM). For the SK-N-BE Bep 75 cells, hygromycin ([…] of medium) is added as selection agent.
Study of the dimerization of the p75^NTR receptor independently of its ligand.
The p75^NTR receptor dimerization study is carried out on a cell suspension of the SK-N-BE Bep 75 strain. The cells (2.5×10^4 cells/well) are placed in wells (96-well plate) for 24 h, and then preincubated for 1 h at 37° C. in the presence or absence of the compounds according to the invention. Supernatant is then added, this supernatant being derived from the culture of HEK293 human cells of renal origin expressing, after 48 h of transfection, and secreting a soluble form of the p75^NTR receptor (extracellular part of the receptor) coupled to an alkaline phosphatase, at the final concentration of 10 nM. The quantification of the specific binding of the soluble p75^NTR receptor to the receptor present on SK-N-BE Bep 75 cells is determined by measuring the alkaline phosphatase enzyme activity after incubation of the cells for 1 hour at 37° C. in the presence of the supernatant. After filtration and transfer of the filters into 24-well plates, the alkaline phosphatase activity is determined by adding CDP-Star chemiluminescent substrate (ready-to-use, Roche). The concentrations inhibiting 50% (Cl50) of the dimerization of the p75^NTR receptor, of the compounds according to the invention, are low and range from 10^−6 to 10^−11M.

[1] = test system: human neuroblastoma strains SH-SY-5Y and SK-N-BE Bep 75; assay: Measurement of NGF-induced apoptosis (cell death detection ELISA); assay type: cell-based; details: SH-SY5Y, NGF 10 ng/ml, 48 h (SH-SY-5Y) or 24 h (SK-N-BE Bep 75), read-out: IC50 of inhibitory activity on NGF-induced apoptosis
Procedure: The SH-SY-5Y strain (human neuroblastoma) is cultured conventionally in a DMEM culture medium (Dulbecco's Modified Eagle's Medium) (Gibco BRL, France) containing FCS (5%) (foetal calf serum) (Boehringer Mannheim, Germany), sodium pyruvate (1 mM) and glutamine (4 mM) in culture flasks coated with collagen (Becton Dickinson, France).
as §1
The cells (human neuroblastoma strains SH-SY-5Y and SK-N-BE Bep 75) are placed in 35 mm diameter Petri dishes (Biocoat collagen I, (10^5 cells/well)) in an appropriate culture medium containing 5% of FCS, for 24 h. […] The degrees of apoptosis are measured 48 hours after the treatments in the case of the SH-SY-5Y strain, and 24 hours after in the case of the SK-N-BE Bep 75 strain, by quantification of the DNA fragment-associated cytoplasmic histones (cell death detection ELISA, Boehringer Mannheim, Germany). The degrees of apoptosis are expressed as amount of oligonucleosomes/10^5 cells. […]

## O=C(O)c1ccc(N2C3CCC2CN(CC(=O)N2CCc4nn(-c5ccccc5)cc4C2)C3)nc1 [compound 24, 6-{3-[2-oxo-2-(2-phenyl-2,4,6,7-tetrahydropyrazolo[4,3-c]pyridin-5-yl)ethyl]-3,8-diazabicyclo[3.2.1]oct-8-yl}nicotinic acid]
Human p75^NTR receptor
  IC50: 1.55 nM
other
  melting point: 202 to 206 °C

## COC(=O)c1ccc(N2C3CCC2CN(CC(=O)N2CCc4nn(-c5ccccc5)cc4C2)C3)nc1 [compound 19, 6-{3-[2-oxo-2-(2-phenyl-2,4,6,7-tetrahydropyrazolo[4,3-c]pyridin-5-yl)ethyl]-3,8-diazabicyclo[3.2.1]oct-8-yl}nicotinic acid methyl ester]
Human p75^NTR receptor
  IC50: 14 nM
other
  melting point: 204 to 205 °C

## O=C(CN1CCN(c2ccc(C(F)(F)F)cn2)C(=O)C1)N1CCc2nc(-c3ccccc3)sc2C1 [compound 11, 4-[2-oxo-2-(2-phenyl-6,7-dihydro-4H-thiazolo[5,4-c]pyridin-5-yl)ethyl]-1-(5-trifluoromethylpyridin-2-yl)piperazin-2-one]
Human p75^NTR receptor
  IC50: 1.9 nM
[1]
  IC50: 4.46 nM

## C[C@@H]1CN(c2ccc(C(F)(F)F)cn2)C[C@H](C)N1CC(=O)N1CCc2nc(-c3ccccc3)sc2C1 [compound 9, 2-[(2S,6R)-2,6-dimethyl-4-(5-trifluoromethylpyridin-2-yl)piperazin-1-yl]-1-(2-phenyl-6,7-dihydro-4H-thiazolo[5,4-c]pyridin-5-yl)ethanone]
Human p75^NTR receptor
  IC50: 0.73 nM
[1]
  IC50: 0.72 nM
